Data as given in patent US10654918B2, “Inflammatory disease diagnosis and methods of treatment using down-regulators of lipopolysaccharide-responsive beige-like anchor” (University of South Florida, priority 2013, dated 2020).

Legend:
[1] = system: splenocytes and bone marrow cells; assay: Ex vivo culture of splenocytes and bone marrow cells with LPS; type: cell-based, mouse; settings: ex vivo cell culture, 24 h LPS stimulation (1 μg/ml)
Protocol: (§1) FIG. 34(A)-(B) are graphs showing LPS regulates BAFFR in vivo and in vitro. C57BL/6J mice of 2-month age were injected intraperitoneally with LPS (5 μg/g body weight) or PBS (control). For in vitro LPS stimulation, cells from mouse spleen or bone marrow were cultured with or without LPS (1 μg/ml) for 24 hr. Cells were stained with fluorophores-conjugated BAFFR and TACI antibodies and DAPI for dead/live discrimination and analyzed with cytometry. (A) Spleocytes without LPS-P3, (B) bone marrow cells without LPS-P3. Negative gating was based on B220 negative cells, which are negative for BAFFR and TACI. Numbers other than percentage are arbitrary MFI units. All experiments were done in triplicate for in the vitro experiment and data shown is representative of two separate experiments.
(§2) To investigate whether CVID genes also respond to LPS, mice were injected intraperitoneally with LPS. Twenty-four hours later the spleen and bone marrow cells were harvested and subjected to cytometry assay.

[2] = system: LRBA; assay: Plasma LRBA levels (ELISA) in mice stimulated with LPS; type: in vivo
Protocol: (A) Mice stimulated with LPS (1 μg/g body weight) for 6 hours. (B) OVA induced asthma mouse model.
(§3) (C) Asthma patients with an exacerbation or controlled symptoms; (D) Human mononuclear leukocytes stimulated with LPS (1 μg/ml). LPS was derived from Escherichia coli 0111:B4 (Sigma, St. Louis, Mo.). LRBA levels were determined by LRBA ELISA Kit using 100 μl of plasma or conditioned media in each well, following the manufacturer's protocol.
(§4) A) Mice stimulated with LPS (5 μg/g body weight) for 6 hours. (B) OVA induced asthma mouse model; (C) Asthma patients with an exacerbation or controlled symptoms; (D) Human mononuclear leukocytes stimulated with LPS (1 μg/ml). LRBA levels were determined by LRBA ELISA Kit using 100 μl of plasma or conditioned media in each well. C57BL/6J mice were injected intraperitoneally with 500 μl of 12 mg/kg (body weight) of LRBA antibody or control normal rabbit 1 gG suspended in saline three times. LPS at 7.5 mg/kg in 0.2 ml PBS i.p was followed. About 100 μl of blood was collected by submandibular venipuncture after 2 hours of LPS injection. Plasma samples were obtained by centrifugation at 3000 rpm for 15 min and used for cytokine assay. The TNFα and IL-6 concentrations were detected using the mouse CBA Th1/Th2/Th17 cytokine kit. The Phosflow Starter Kit contains Cytofix Fixation Buffer, Phosflow Perm Buffer III and Stain Buffer BSA.

[3] = system: Human mononuclear leukocytes; assay: LRBA levels in culture supernatants of mononuclear leukocytes stimulated with LPS; type: cell-based; settings: LPS 1 μg/ml
Protocol: as §3, §4

[4] = system: CVID receptors, B220 and TLR4; assay: LPS regulates CVID receptors, B220 and TLR4 in vivo (cytometry of spleen and bone marrow cells); design: species or system C57BL/6J mice; settings: for B220 Median Intensity fold / B220 Percentage fold / BAFFR Median Intensity fold / BAFFR Percentage fold / CD19 Median Intensity fold / CD19 Percentage fold / CD21 Median Intensity fold / CD21 Percentage fold / TACI Median Intensity fold / TACI Percentage fold / TLR4 Median Intensity fold / TLR4 Percentage fold: PBS vs LPS
Protocol: as §1, §2

[5] = system: RAW264.7 macrophage cells; assay: Time-lapse video of LRBA-associated vesicle movement after LPS; type: cell-based, mouse
Protocol: FIGS. 14(A) and (B) are graphs showing LPS stimulates LRBA-positive vesicles movements. RAW264.7 macrophage cells stably transfected with pBWEGFP were cultured in a glass bottom dish and put into the culture chamber. LPS was added at final concentration of 100 ng/ml. The time-lapse video of four living cells was taken at one picture per second using the Leica TCS SP2 laser scanning inverted confocal microscope with a mini cell culture chamber at 37° C. and 5% CO2. (A) Average speed of LRBA-associated vesicles; (B) Average maximum speed of LRBA-associated vesicles; The two tails and unpaired T test p values: ***p<0.001; *p<0.0138 (A); ***p<0.0005; *p<0.0117 (B).
Time lapse video was taken for living macrophage cells. RAW264.7 macrophage cells stably transfected with pBWEGFP were cultured in a glass bottom dish and put into the mini cell culture chamber at 37° C. and 5% CO2 in a Leica TCS SP2 laser scanning inverted confocal microscope. LPS was added at final concentration of 100 ng/ml. The time-lapse video of four living cells was taken at one picture per second using the Avg. timelapse interval: 1000.05 ms (1.0 Hz) (+/−8.9 ms); Initial SAC Position: 1700; Objective: 100× (magnification: 100.00×); Mag. changer: EMCCD (magnification: 1.00×); 8 inning: 1×1; Channel 1: c488em at 50 ms. Gain: 3 Intensification: 700 ND: 60 [Independent]. […]

[6] = Bone Marrow, LPS 5 μg/g i.p., 24 h

## Lipopolysaccharide [LPS]
[1]
  TACI on splenocytes and bone marrow cells: significantly upregulated
[2]; high levels, upper value
  LRBA secreted into plasma upon LPS stimulation: up to 6.7 μg/L
[2]; mice stimulated with LPS for 6 hours
  LRBA levels in plasma: significantly increased
[3]
  LRBA levels in the culture supernatants: significantly increased
[4]; [6]
  B220 Median Intensity: 2423 ± 396.6 arbitrary fluorescence intensity units
  B220 Percentage: 15.5 ± 5.1%
  BAFFR Median Intensity: 693.3 ± 84.1 arbitrary fluorescence intensity units
  BAFFR Percentage: 43.7 ± 4.9%
  CD19 Median Intensity: 1951105 arbitrary fluorescence intensity units
  CD19 Percentage: 17.9 ± 5.5%
  CD21 Median Intensity: 378 ± 53.8 arbitrary fluorescence intensity units
  CD21 Percentage: 24.5 ± 1.23%
  TACI Percentage: 1.4 ± 0.35%
  TLR4 Median Intensity: 592 ± 28.8 arbitrary fluorescence intensity units
  TLR4 Percentage: 50.9 ± 3.3%
[4]; Bone Marrow
  B220 Median Intensity fold: 0.69↑
  B220 Percentage fold: 1.02
  BAFFR Median Intensity fold: 1.58↓
  BAFFR Percentage fold: 0.81
  CD19 Median Intensity fold: 0.94
  CD19 Percentage fold: 0.83
  CD21 Median Intensity fold: 2.02↓
  CD21 Percentage fold: 1.1
  TACI Median Intensity fold: 1.03
  TACI Percentage fold: 2.16
  TLR4 Median Intensity fold: 0.97
  TLR4 Percentage fold: 1.13↓
[4]; Spleen, LPS 5 μg/g i.p., 24 h
  B220 Median Intensity: 4031.3 ± 153.2 arbitrary fluorescence intensity units
  B220 Percentage: 58.7 ± 4.5%
  BAFFR Median Intensity: 842.7 ± 73.1 arbitrary fluorescence intensity units
  BAFFR Percentage: 94.7 ± 0.92%
  CD19 Median Intensity: 1792237 arbitrary fluorescence intensity units
  CD19 Percentage: 59 ± 4.1%
  CD21 Median Intensity: 580.71 ± 56.5 arbitrary fluorescence intensity units
  CD21 Percentage: 80.9 ± 9.7%
  TACI Median Intensity: 560.7 ± 60.1 arbitrary fluorescence intensity units
  TACI Percentage: 7.9 ± 2.70%
  TLR4 Median Intensity: 502.7 ± 3.1 arbitrary fluorescence intensity units
  TLR4 Percentage: 55.7 ± 4.0%
[4]; Spleen
  B220 Median Intensity fold: 1
  B220 Percentage fold: 0.8↑
  BAFFR Median Intensity fold: 1.19↓
  BAFFR Percentage fold: 0.98
  CD19 Median Intensity fold: 1.07
  CD19 Percentage fold: 0.8↑
  CD21 Median Intensity fold: 1.45↓
  CD21 Percentage fold: 1.1
  TACI Median Intensity fold: 1.1
  TACI Percentage fold: 0.35↑
  TLR4 Median Intensity fold: 1.02
  TLR4 Percentage fold: 1.16↓
[5]; 3 min after adding LPS (100 ng/ml) into the media
  average speed of vesicles: doubles
[5]; after 5 and 23 min of LPS (100 ng/ml)
  average speed of vesicles: slows down to original levels
